Laboratory results reported in ChEMBL document CHEMBL4342418, “1,2,3-Triazole-containing hybrids as potential anticancer agents: Current developments, action mechanisms and structure-activity relationships” (Eur J Med Chem, 2019).

Legend:
Assay type in all cases: functional, cell-based
A-431 = test: Antiproliferative activity against human A431 cells assessed as reduction in cell viability after 24 hrs by MTT assay; details: A-431, 24 h
K562 = test: Antiproliferative activity against human K562 cells assessed as reduction in cell viability after 24 hrs by MTT assay; details: K562, 24 h
COLO 205 = test: Antiproliferative activity against human COLO205 cells assessed as reduction in cell viability after 24 hrs by MTT assay; details: COLO 205, 24 h
A549 [1] = test: Antiproliferative activity against human A549 cells assessed as reduction in cell viability after 24 hrs by MTT assay; details: A549, 24 h
MDA-MB-231 = test: Antiproliferative activity against human MDA-MB-231 cells assessed as reduction in cell viability after 24 hrs by MTT assay; details: MDA-MB-231, 24 h
PC-3 = test: Antiproliferative activity against human PC3 cells assessed as reduction in cell viability after 24 hrs by MTT assay; details: PC-3, 24 h
HL-60 = test: Antiproliferative activity against human HL60 cells by MTT assay
MCF7 = test: cells; details: Homo sapiens
Description: Antiproliferative activity against human MCF7 cells by MTT assay

Lu1 = test: Antiproliferative activity against human Lu1 cells by MTT assay
P388 = test: Antiproliferative activity against mouse P388 cells by MTT assay
HeLa = test: Antiproliferative activity against human HeLa cells by MTT assay
A549 [2] = test: cells; details: Homo sapiens
Description: Antiproliferative activity against human A549 cells by MTT assay

Row | Structure (SMILES) | IC50 (HL-60) | IC50 (MCF7) | IC50 (Lu1) | IC50 (P388) | also measured
1 | C[C@H]1[C@@H](OCc2cn(-c3ccc([N+](=O)[O-])cc3)nn2)O[C@@H]2O[C@@]3(C)CC[C@H]4[C@H](C)CC[C@@H]1[C@@]24OO3 | – | – | – | – | IC50 (A-431): 4.06 to 89.9 µM; IC50 (K562): 4.06 to 89.9 µM; IC50 (COLO 205): 4.06 to 89.9 µM; IC50 (A549 [1]): 4.06 to 89.9 µM; IC50 (MDA-MB-231): 4.06 to 89.9 µM; IC50 (PC-3): 4.06 to 89.9 µM
2 | CCN(CC)C(=O)c1cccc(-n2cc(CO[C@H]3O[C@@H]4O[C@@]5(C)CC[C@H]6[C@H](C)CC[C@@H]([C@H]3C)[C@@]46OO5)nn2)c1 | 2.5 to 176 µM | 2.5 to 176 µM | 2.5 to 176 µM | 2.5 to 176 µM | –
3 | C[C@@H]1CC[C@H]2C[C@@H](OCc3cn(-c4ccnc5cc(Cl)ccc45)nn3)O[C@@H]3O[C@@]4(C)CC[C@@H]1[C@@]23OO4 | 5.7 to 19.5 µM | 5.7 to 19.5 µM | 5.7 to 19.5 µM | 5.7 to 19.5 µM | –
4 | COc1ccc(-c2ccc3c(c2)OCC(=O)N3Cc2cn(-c3cc(Cl)cc(Cl)c3)nn2)cc1 | – | 21.8 µM | – | – | IC50 (HeLa): 19.5 µM
5 | C[C@H]1[C@@H](OCc2cn(-c3ccc(C(=O)N4CCCCC4)cc3)nn2)O[C@@H]2O[C@@]3(C)CC[C@H]4[C@H](C)CC[C@@H]1[C@@]24OO3 | 2.5 to 176 µM | 2.5 to 176 µM | 2.5 to 176 µM | 2.5 to 176 µM | –
6 | CCN1CCN(C(=O)c2cccc(-n3cc(CO[C@H]4O[C@@H]5O[C@@]6(C)CC[C@H]7[C@H](C)CC[C@@H]([C@H]4C)[C@@]57OO6)nn3)c2)CC1 | 2.5 to 176 µM | 2.5 to 176 µM | 2.5 to 176 µM | 2.5 to 176 µM | –
7 | CCC1(CCn2cc(COc3ccc(C)cc3)nn2)OCCc2c1[nH]c1ccccc21 (configuration not stated) | – | – | – | – | IC50 (A549 [2]): 3.65 µM
8 | C[C@H]1[C@@H](OCc2cn(-c3cccc(C(=O)N4CCCC4)c3)nn2)O[C@@H]2O[C@@]3(C)CC[C@H]4[C@H](C)CC[C@@H]1[C@@]24OO3 | 2.5 to 176 µM | 2.5 to 176 µM | 2.5 to 176 µM | 2.5 to 176 µM | –
9 | C[C@H]1[C@@H](OCc2cn(-c3ccc(O)cc3)nn2)O[C@@H]2O[C@@]3(C)CC[C@H]4[C@H](C)CC[C@@H]1[C@@]24OO3 | – | – | – | – | IC50 (A-431): 4.06 to 36.6 µM; IC50 (K562): 4.06 to 36.6 µM; IC50 (COLO 205): 4.06 to 36.6 µM; IC50 (A549 [1]): 4.06 to 36.6 µM; IC50 (MDA-MB-231): 4.06 to 36.6 µM; IC50 (PC-3): 4.06 to 36.6 µM
10 | C[C@H]1[C@@H](OCc2cn(-c3ccc(C(=O)N4CCN(c5ccccc5)CC4)cc3)nn2)O[C@@H]2O[C@@]3(C)CC[C@H]4[C@H](C)CC[C@@H]1[C@@]24OO3 | 2.5 to 176 µM | 2.5 to 176 µM | 2.5 to 176 µM | 2.5 to 176 µM | –
11 | COc1cc(-c2ccccc2Cl)cc(-c2nnn(Cc3ccccc3)c2C)n1 | – | – | – | – | IC50 (A549 [1]): 42.6 µg/mL; IC50 (MDA-MB-231): 42.3 µg/mL; IC50 (PC-3): 28.2 µg/mL
12 | CCC1(CCn2cc(COc3ccccc3)nn2)OCCc2c1[nH]c1ccccc21 (configuration not stated) | – | – | – | – | IC50 (A549 [2]): 3.29 µM
13 | CC(=O)c1ccccc1-n1cc(CO[C@H]2O[C@@H]3O[C@@]4(C)O[C@]35[C@@H](CC[C@@H](C)[C@@H]5C[C@H]4O)[C@H]2C)nn1 | – | – | – | – | IC50 (A-431): 4.06 to 89.9 µM; IC50 (K562): 4.06 to 89.9 µM; IC50 (COLO 205): 4.06 to 89.9 µM; IC50 (A549 [1]): 4.06 to 89.9 µM; IC50 (MDA-MB-231): 4.06 to 89.9 µM; IC50 (PC-3): 4.06 to 89.9 µM
14 | CC1CCCCN1C(=O)c1ccc(-n2cc(CO[C@H]3O[C@@H]4O[C@@]5(C)CC[C@H]6[C@H](C)CC[C@@H]([C@H]3C)[C@@]46OO5)nn2)cc1 (some centres not stated) | 2.5 to 176 µM | 2.5 to 176 µM | 2.5 to 176 µM | 2.5 to 176 µM | –
15 | COc1ccc(-n2cc(CO[C@H]3O[C@@H]4O[C@@]5(C)CC[C@H]6[C@H](C)CC[C@@H]([C@H]3C)[C@@]46OO5)nn2)cc1 | – | – | – | – | IC50 (A-431): 4.06 to 89.9 µM; IC50 (K562): 4.06 to 89.9 µM; IC50 (COLO 205): 4.06 to 89.9 µM; IC50 (A549 [1]): 4.06 to 89.9 µM; IC50 (MDA-MB-231): 4.06 to 89.9 µM; IC50 (PC-3): 4.06 to 89.9 µM
16 | CC[C@H]1OC(=O)[C@H](C)[C@@H](O[C@H]2C[C@@](C)(OC)[C@@](C)(CN(C)Cc3ccc(-c4cn(CCCCCCC(=O)NO)nn4)cc3)[C@H](C)O2)[C@H](C)[C@@H](O)[C@](C)(OC)C[C@@H](C)C(=O)[C@H](C)[C@@H](O)[C@]1(C)O | – | 0.69 µM | – | – | IC50 (A549 [2]): 0.99 µM
17 | C[C@H]1[C@@H](OCc2cn(-c3ccc(C(=O)N4CCN(C)CC4)cc3)nn2)O[C@@H]2O[C@@]3(C)CC[C@H]4[C@H](C)CC[C@@H]1[C@@]24OO3 | 2.5 to 176 µM | 2.5 to 176 µM | 2.5 to 176 µM | 2.5 to 176 µM | –
18 | CO[C@H]1C[C@@H]2CC[C@@H](C)[C@@](O)(O2)C(=O)C(=O)N2CCCC[C@H]2C(=O)O[C@H]([C@H](C)C[C@@H]2CC[C@@H](O)[C@H](OC)C2)CC(=O)[C@H](C)/C=C(\C)[C@@H](O)[C@@H](OC)C(=O)[C@H](C)C[C@H](C)/C=C/C=C/C=C/1C [SIROLIMUS] | – | 18.7 to 35.1 µM | – | – | IC50 (A549 [2]): 18.7 to 35.1 µM
